ChEMBL document CHEMBL3797024, “Exploring new chemical functionalities to improve aromatase inhibition of steroids” (Bioorg Med Chem, 2016)

Columns and labels:
Aromatase [1] = molecular target: T1, Aromatase (Homo sapiens, UniProt P11511); assay: Inhibition of human placental aromatase expressed in human MCF7 cells using [1beta-3H]-androstenedione as substrate assessed as tritiated H2O release at 10 uM after 1 hr by liquid scintillation counting method in presence of progesterone relative to control; format: cell-based
T1 sequence (P11511 whole entry): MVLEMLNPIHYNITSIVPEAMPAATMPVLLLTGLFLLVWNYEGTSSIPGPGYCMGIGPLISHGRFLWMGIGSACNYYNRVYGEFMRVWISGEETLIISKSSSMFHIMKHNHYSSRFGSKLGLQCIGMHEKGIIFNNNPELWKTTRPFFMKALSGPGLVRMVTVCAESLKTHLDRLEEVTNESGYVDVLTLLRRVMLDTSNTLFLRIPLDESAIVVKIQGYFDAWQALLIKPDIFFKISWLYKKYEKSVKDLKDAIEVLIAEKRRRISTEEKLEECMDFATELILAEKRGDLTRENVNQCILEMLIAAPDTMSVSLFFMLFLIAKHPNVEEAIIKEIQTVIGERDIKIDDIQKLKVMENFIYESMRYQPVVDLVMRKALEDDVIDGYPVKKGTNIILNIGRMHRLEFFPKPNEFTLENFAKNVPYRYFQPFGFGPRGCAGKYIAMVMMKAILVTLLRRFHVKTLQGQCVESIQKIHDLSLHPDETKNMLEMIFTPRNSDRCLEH

Aromatase [2] = molecular target: T1, Aromatase; assay: Inhibition of aromatase in human placental microsomes using [1beta-3H]-androstenedione as substrate assessed as tritiated H2O release at 2 uM after 15 mins by liquid scintillation counting method relative to control; design: species or system Placenta; conditions: 0.25 h
Aromatase [3] = molecular target: T1, Aromatase; assay: Inhibition of aromatase in human placental microsomes using [1beta-3H]-androstenedione as substrate assessed as tritiated H2O release at 0.5 uM after 15 mins by liquid scintillation counting method relative to control; design: species or system Placenta; conditions: 0.25 h
Aromatase [4] = molecular target: T1, Aromatase; assay: Inhibition of human placental aromatase expressed in human MCF7 cells using [1beta-3H]-androstenedione as substrate at 1 uM after 1 hr by liquid scintillation counting method in presence of progesterone relative to control; format: cell-based
Aromatase [5] = molecular target: T1, Aromatase; assay: Inhibition of aromatase in human placental microsomes using [1beta-3H]-androstenedione as substrate assessed as tritiated H2O release after 15 mins by liquid scintillation counting method; design: species or system Placenta

Row | SMILES | inhibition at 10 µM (Aromatase [1]) | inhibition at 2 µM (Aromatase [2]) | also measured
1 | C[C@]12CC[C@H]3O[C@H]3[C@@H]1CC[C@@H]1[C@@H]2CC[C@]2(C)C(=O)CC[C@@H]12 | 80.4% |  | 
2 | C[C@]12CCC3=C(OCCO3)C1=CC[C@@H]1[C@@H]2CC[C@]2(C)C(=O)CC[C@@H]12 |  | 55.9% | 
3 | C[C@]12CCC=C[C@@H]1CC[C@@H]1[C@@H]2CC[C@]2(C)C(=O)CC[C@@H]12 | 56.9% |  | 
4 | C[C@]12CCC(=O)C(O)=C1CC[C@@H]1[C@@H]2CC[C@]2(C)C(=O)CC[C@@H]12 [FORMESTANE] |  |  | inhibition at 0.5 µM (Aromatase [3]): 99.2%; inhibition at 1 µM (Aromatase [4]): 96.1%
5 | C[C@]12CC[C@H]3C[C@H]3[C@@H]1CC[C@@H]1[C@@H]2CC[C@]2(C)C(=O)CC[C@@H]12 | 89.3% | 95.3% | IC50 (Aromatase [5]): 110 nM
6 | C=CC[C@@H]1CC2=CC(=O)C=C[C@]2(C)[C@H]2CC[C@]3(C)C(=O)CC[C@H]3[C@H]12 | 94.2% | 94.5% | 
7 | C[C@]12C=CC(=O)C=C1C[C@@H](CC1CO1)[C@@H]1[C@@H]2CC[C@]2(C)C(=O)CC[C@@H]12 (some centres undefined) | 72.3% | 76.3% | 
8 | C[C@]12CC[C@H]3[C@@H](CC[C@@]45O[C@@H]4CCC[C@]35C)[C@@H]1CCC2=O | 53.2% |  | 
9 | C[C@]12CC[C@H]3[C@@H](CC[C@]45O[C@H]4CCC[C@]35C)[C@@H]1CCC2=O | 64.8% | 85.5% | IC50 (Aromatase [5]): 530 nM
10 | C[C@]12CCC(=O)C=C1CC[C@@H]1C2=CC[C@]2(C)C(=O)CC[C@@H]12 | 96.4% | 95.2% | 
11 | C[C@]12CCCC=C1CC[C@@H]1[C@@H]2CC[C@]2(C)C(=O)CC[C@@H]12 | 62.6% |  | 
